In article PMC9039011, “Novel β-Cyclodextrin-Based Heptavalent Glycyrrhetinic Acid Conjugates: Synthesis, Characterization, and Anti-Influenza Activity” (Frontiers in Chemistry, 2022):

Experiments:
[1] = Cytotoxicity assay (CellTiter-Glo cell viability); conditions: dog
MDCK cells = assay: Cytotoxicity assay (CellTiter-Glo cell viability); conditions: dose-dependent, 10 and 25 μM
HA = target: HA; parameters: method as in Sauter et al., 1989; conditions: monovalent interaction; ref Sauter et al., 1989; read-out: dissociation constant (KD); cited from earlier work

**Q.** With `CC1(C)[C@@H](O)CC[C@]2(C)[C@H]3C(=O)C=C4[C@@H]5C[C@@](C)(C(=O)O)CC[C@]5(C)CC[C@@]4(C)[C@]3(C)CC[C@@H]12` [Compound 2, glycyrrhetinic acid] as the compound, how does the CC50 at 48 h ([1]; MDCK cells) read?
**A.** The CC50 at 48 h was 85 ± 6.8 µM.

**Q.** What about the viability at 48 h, 25 µM ([1]; MDCK cells (uninfected)) of the same compound?
**A.** The viability at 48 h, 25 µM was 82.8%.

**Q.** With `CC(=O)O[C@H]1C(=O)[C@@]2(C)[C@H]([C@H](OC(=O)c3ccccc3)[C@]3(O)C[C@H](OC(=O)[C@H](O)[C@@H](NC(=O)c4ccccc4)c4ccccc4)C(C)=C1C3(C)C)[C@]1(OC(C)=O)CO[C@@H]1C[C@@H]2O` [PTX, paclitaxel] as the compound, how does the “viability of MDCK cells (words, positive control)” value (MDCK cells) read?
**A.** Its value is “decrease in the viability”.

**Q.** Which Kd (HA) does the source give for `CC(=O)N[C@H]1[C@H]([C@H](O)[C@H](O)CO)OC(O)(C(=O)O)C[C@@H]1O` (stereo partly shown) [sialic acid] here?
**A.** Its Kd is about 2000 µM.
